Experimental data as given in patent US20200095192A1, “BIODEGRADABLE DIETHANOLAMINE DERIVATIVE CHELATING AGENT AND PREPARATION PROCESS THEREOF” (PTT Global Chemical Public Company Limited, priority 2017, published 2020).

Legend:
[1] = calcium chelation value of crude ligand; assay type: physicochemical; design: unit not given here
Experimental: (§1) The diethanolamine derivatives and maleic anhydride can be synthesized by the reaction according to equation (I). The diethanolamine precursor, maleic anhydride, and selected catalyst were added into about 15-20 mL of dichloromethane solvent, wherein the amounts of each compounds were shown in table 1. Then, the obtained mixture was refluxed at the temperature of 50° C. until the reaction was completed. The amount of precursors being used was monitored. The solvent was removed from the obtained product. The obtained product was dissolved in 50 mL of distilled water and washed with dichloromethane for at least 3 times (30 mL each). After being washed, the obtained product was dried under vacuum and analyzed for its property using ^1H NMR spectroscopy and liquid chromatography mass spectrometry (LC/MS) technique.
as §1, with “succinic” for “maleic”, “(II).” for “(I).”, “3.” for “1.”, “in” for “in 50 mL of”, “water (50 mL)” for “water”
as §1, with “and succinic” for “and maleic”, “equation (III).” for “equation (I).”, “precursor, phthalic” for “precursor, maleic”, “table 5.” for “table 1.”, “in” for “in 50 mL of”, “water (50 mL)” for “water”

[2] = stability constant by complex titration; assay type: physicochemical; details: synthesized chelating agent
Source text: The analysis of stability constant between the synthesized chelating agent and metal ions can be performed by complex titration wherein the stability constant of the synthesized chelating agent and metal ions comparing to the previous disclosed degradable chelating agent can be performed according to table 7.

[3] = crude of ligand 2-1 to ligand 2-9 without purification
[4] = crude of ligand 3-1 to ligand 3-7 without purification

Row | calcium chelation value [1, 4] | Structure (SMILES) | calcium chelation value [1, 3] | also measured
1 | – | O=C(O)CCC(=O)OCCN(CCOC(=O)CCC(=O)O)C(=O)CCC(=O)O [ligand 2-2] | 8 | –
2 | – | O=C(O)CCC(=O)OCCN(CCOC(=O)CCC(=O)O)C(=O)CCC(=O)O [ligand 2-3] | 55 | –
3 | – | O=C(O)CCC(=O)OCCN(CCOC(=O)CCC(=O)O)C(=O)CCC(=O)O [ligand 2-4] | 21 | –
4 | – | O=C(O)CCC(=O)OCCN(CCOC(=O)CCC(=O)O)C(=O)CCC(=O)O [ligand 2-5] | 45 | –
5 | – | O=C(O)CCC(=O)OCCN(CCOC(=O)CCC(=O)O)C(=O)CCC(=O)O [ligand 2-6] | 87 | –
6 | – | O=C(O)CCC(=O)OCCN(CCOC(=O)CCC(=O)O)C(=O)CCC(=O)O [ligand 2-7] | 42 | –
7 | – | O=C(O)CCC(=O)OCCN(CCOC(=O)CCC(=O)O)C(=O)CCC(=O)O [ligand 2-8] | 83 | –
8 | – | O=C(O)CCC(=O)OCCN(CCOC(=O)CCC(=O)O)C(=O)CCC(=O)O [ligand 2-9] | 85 | –
9 | – | O=C(O)CCC(=O)OCCN(CCOC(=O)CCC(=O)O)C(=O)CCC(=O)O [ligand 2] | – | stability constant ([2]; aluminium (Al^3+)): 11.4; stability constant ([2]; barium (Ba^2+)): 6.2; stability constant ([2]; cadmium (Cd^2+)): 7.2; stability constant ([2]; calcium (Ca^2+)): 10.1; stability constant ([2]; cobolt (Co^2+)): 7.5; stability constant ([2]; copper (Cu2+)): 10.5; stability constant ([2]; iron (Fe^2+)): 12.3; stability constant ([2]; iron (Fe^3+)): 7.5; stability constant ([2]; magnesium (Mg^2+)): 8.1; stability constant ([2]; manganese (Mn^2+)): 9.1; stability constant ([2]; mercury (Hg^2+)): 9.5; stability constant ([2]; nickel (Ni^2+)): 5.4; stability constant ([2]; strontium (Sr^2+)): 5.3; stability constant ([2]; tin (Pb^2+)): 9.9; stability constant ([2]; zinc (Zn^2+)): 7.9
10 | 25 | O=C(O)c1ccccc1C(=O)OCCN(CCOC(=O)c1ccccc1C(=O)O)C(=O)c1ccccc1C(=O)O [ligand 3-1] | – | –
11 | 15 | O=C(O)c1ccccc1C(=O)OCCN(CCOC(=O)c1ccccc1C(=O)O)C(=O)c1ccccc1C(=O)O [ligand 3-2] | – | –
12 | 81 | O=C(O)c1ccccc1C(=O)OCCN(CCOC(=O)c1ccccc1C(=O)O)C(=O)c1ccccc1C(=O)O [ligand 3-3] | – | –
13 | 70 | O=C(O)c1ccccc1C(=O)OCCN(CCOC(=O)c1ccccc1C(=O)O)C(=O)c1ccccc1C(=O)O [ligand 3-4] | – | –
14 | 75 | O=C(O)c1ccccc1C(=O)OCCN(CCOC(=O)c1ccccc1C(=O)O)C(=O)c1ccccc1C(=O)O [ligand 3-5] | – | –
15 | 88 | O=C(O)c1ccccc1C(=O)OCCN(CCOC(=O)c1ccccc1C(=O)O)C(=O)c1ccccc1C(=O)O [ligand 3-6] | – | –
16 | 76 | O=C(O)c1ccccc1C(=O)OCCN(CCOC(=O)c1ccccc1C(=O)O)C(=O)c1ccccc1C(=O)O [ligand 3-7] | – | –
